Laboratory results reported in publication PMC5457661, “Dysregulation of lysophosphatidic acids in multiple sclerosis and autoimmune encephalomyelitis” (Acta Neuropathologica Communications, 2017).
“Also recorded” adds a separate entry of the source. Read-outs that look alike come from different tables or passages of the source.

Legend:
LPAR2 [1] = target: T1, LPAR2 (Homo sapiens, UniProt Q9HBW0); test: LPA receptor activation, aequorin-GFP calcium luminescence in COS-1 cells co-transfected with Gα15; type: cell-based
T1 construct: plasmids containing the indicated receptor cDNA or control (empty vector, mock); expressed in transfected cells; host or cells: COS-1
Description: (§1) To study the activation profile of heterologously expressed LPA receptors, COS-1 cells were seeded in 96-well plates at a density of 50.000 cells/well. Next day, they were co-transfected with plasmids containing cDNA for a calcium-sensitive bioluminescent fusion protein between aequorin and GFP [3] and plasmids containing the indicated receptor cDNA or control (empty vector, mock) together with the promiscuous Gα15 [42] at a concentration of 50 ng/well by using FuGENE 6 reagent (Promega) according to manufacturer’s instructions. Forty-eight hours later, cells were loaded with 5 μM coelenterazine h (Invitrogen) in HBSS buffer containing 1.8 mM CaCl2 and 10 mM glucose for 2 h at 37 °C. Measurements were performed by using a luminometric plate reader (Flexstation 3) for 100 s following ligand stimulation. The area under each calcium transient was calculated by using SoftMaxPro software and expressed as area under the curve (AUC). The following lipids were used for stimulation: 1-Palmitoyl-LPA (LPA16:0), 1-oleoyl-LPA (LPA18:1), 1-stearoyl-LPA (LPA18:0), 1-lineoyl-LPA (LPA18:2), 1-arachidonoyl-LPA (LPA20:4). LPA16:0 and 18:1 were from Cayman, the others from AvantiPolar Lipids.

RR-EAE SJL/J mice = test: Relapsing-remitting EAE (PLP139-151/CFA/PTX immunization), clinical scores, body weight, spinal cord immunofluorescence; type: in vivo
Description: (§2) Female SJL/J mice (Envigo, Germany), aged 10–12 weeks at immunization were used for study of relapsing-remitting EAE and female TCR^1640 mice for spontaneous RR-EAE [45]. Female C57BL6/J mice and LPAR2^−/− mice and LPAR2^+/+ littermates were used for the study of primary progressive EAE. LPAR2^−/− mice have a mixed C57BL6/J x Sv129 background with about 25% Sv129. Mice were housed at 3–5 mice per cage at constant room temperature (21 ± 1 °C) under a regular 12 h light/dark schedule. Food and water were available ad libitum. Animals were treated orally via the drinking water with FTY720 (fingolimod) at 0.5 mg/kg/d starting 3 days after immunization for preventive treatment. Monoclonal anti-Itga4 antibody treatment (natalizumab) in SJL/J mice consisted in 3 intraperitoneal injections (1x200 μg, 2x 150 μg) on day 11, 14 and 19. The LPAR2 agonist GRI 977143 was administered perorally in cornflakes soaked with 10% sucrose/10% DMSO in water with 100 μg/mouse/d of the drug starting 3d after immunization. Control animals received the respective vehicle. Oral bioavailability (F) of the LPAR2 agonist and basic kinetics were assessed by LC-MS/MS analysis of plasma concentrations. Tmax and Cmax were directly taken from the plasma concentration time courses. AUCs were calculated according to the linear trapezoidal rule. The clearance was calculated as Cl = Dose*F/AUCs and the half-life, t1/2 = ln2/λ, where λ is the terminal decay constant.
C57BL6/J and LPAR2 mice were immunized according to a standard protocol using the Hooke Kit™ MOG35-55/CFA emulsion PTX (EK-2110, Hooke Labs, St Lawrence, MA), which contains 200 μg myelin oligodendrocyte glycoprotein (MOG) 35–55 emulsified in 200 μl Complete Freund’s Adjuvant (CFA). The emulsion was injected subcutaneously at two sites followed by two intraperitoneal (i.p.) injections of 200 ng pertussis toxin (PTX) in phosphate buffered saline (PBS), the first 1–2 h after MOG35-55, and the second 24 h later. SJL mice were immunized using Hooke Kit™ PLP139-151/CFA emulsion PTX (EK-2120), which contains 200 μg myelin proteolipid protein (PLP) 139–151 in 200 μl CFA (Hooke Labs, US). Injections of the emulsion and PTX were done as described for C57BL6 mice.
EAE scores were assessed daily to evaluate the severity and extent of motor function deficits. Score 0, normal motor functions; score 0.5, distal paralysis of the tail; score 1, complete tail paralysis; score 1.5, mild paresis of one or both hind legs; score 2, severe paresis of hind legs; score 2.5, complete paralysis of one hind leg; score 3, complete paralysis of both hind legs; score 3.5, complete paralysis of hind legs and paresis of one front leg. Serum and tissues were sampled after the second peak, 35–36 days after immunization.
Mice were terminally anaesthetized with isoflurane and cardially perfused with cold 0.9% NaCl, followed by 4% paraformaldehyde (PFA) in 1x PBS for fixation. […]
Tiled images of individual sections were captured with equal filter and acquisition parameters to assure comparability independent of genotype or treatment and subsequently stitched to cover the complete ventral horn of the spinal cord. Iba1+ and CD11b + microglia/macrophages in the gray matter and white matter were quantified using the particle counter plugin of FIJI ImageJ. […] Three or more non-overlapping images of 3 mice were analyzed per group.

[2] = Plasma concentration time courses and basic pharmacokinetics of the LPAR2 agonist (LC-MS/MS); type: in vivo, SJL/J mice
Description: as §2

LPAR1, 2, 3 or 4 [3] = target: T2, LPAR1, 2, 3 or 4 (Homo sapiens, UniProt Q9HBW0); test: LPA receptor activation panel in COS cells with heterologous expression of LPAR1, 2, 3 or 4 plus Gα15, mock controls; type: cell-based; conditions: COS cells with heterologous expression of LPAR1, 2, 3 or 4
T2 construct: expressed in transfected cells; host or cells: COS-1
Description: as §1

LPAR2 [4] = target: T1, LPAR2; parameters: method as in not given; conditions: reported value; ref not given; cited from earlier work
LPAR1 = target: T3, LPAR1 (Homo sapiens, UniProt Q92633); test: LPA receptor activation, aequorin-GFP calcium luminescence in COS-1 cells co-transfected with Gα15; type: cell-based; conditions: compared with other LPAs
T3 construct: plasmids containing the indicated receptor cDNA or control (empty vector, mock); expressed in transfected cells; host or cells: COS-1
Description: as §1

LPAR1, 2, 3 or 4 [5] = test: LPA receptor activation panel in COS cells with heterologous expression of LPAR1, 2, 3 or 4 plus Gα15, mock controls; type: cell-based, human; conditions: for LPAR activation (agonist activity): calcium transient AUC, all heterologously expressed LPARs
Description: as §1

autotaxin [6] = target: T4, autotaxin (Mus musculus, UniProt Q9R1E6); test: LPA plasma concentration in naïve mice after autotaxin inhibitor; type: in vivo; conditions: i.p. 30 min before plasma sampling
T4 construct: from tissue; host or cells: living naïve mice, plasma sampled
Description: Quantitative LPA analysis was performed with liquid chromatography-electrospray ionization-tandem mass spectrometry (LC-ESI-MS/MS) with a hybrid triple quadrupole-ion trap QTrap 5500 mass spectrometer (AB Sciex, Germany) as described without knowledge of clinical data or treatment groups. Briefly, 2 cycles of liquid-liquid extraction of LPAs were done with 1-buthanol after adding the internal standard LPA17:0 (50 μl sample, 20 μl internal standard in 500 μl 1-butanol). The combined organic phases were dried under a gentle stream of nitrogen at 45 °C and subsequently re-dissolved in 200 μl methanol. A C18 column (Mercury 20 x 2 mm, 3 μm, 100 Å) and precolumn were used for chromatographic separation. A linear gradient was employed at a flow rate of 400 μl/min. Mobile phase A was water with ammonium formate 50 mM and formic acid (100:0.2, v/v) and mobile phase B acetonitrile/formic acid (100:0.1, v/v). The mass spectrometer operated in the negative ion mode and used multiple reaction monitoring (MRM). The mass transitions were m/z 409 → 79 (LPA 16:0), m/z 437 → 153 (LPA 18:0), m/z 431 → 79 (LPA 18:3) and m/z 457 → 153 (LPA 20:4) all with a dwell time of 50 ms. The internal standard method was used for quantification with Analyst Software V1.5 (Applied Biosystems, Germany). The calibration curve was linear over the range of 0.1–500 ng/ml and accuracy was >95%.

autotaxin [7] = tested on: autotaxin; parameters: method as in PMID 19215222; conditions: cited from earlier work
serum LPAs [8] = test: Serum LPA concentrations (LC-MS/MS) in treated SJL/J EAE mice; type: in vivo; conditions: 35 days after immunization, vs vehicle treated EAE mice
Description: as §2, with “Monoclonal anti-Itga4 antibody treatment (natalizumab) in SJL/J mice consisted in 3 intraperitoneal injections (1x200 μg, 2x 150 μg) on day 11, 14 and 19. The LPAR2 agonist GRI 977143 was administered perorally in cornflakes soaked with 10% sucrose/10% DMSO in water with 100 μg/mouse/d of the drug starting 3d after immunization. Control animals received the respective vehicle.” left out, “Tmax and Cmax were directly taken from the plasma concentration time courses.” left out, “constant. […]” for “constant.”
(§3) Quantitative LPA analysis was performed with liquid chromatography-electrospray ionization-tandem mass spectrometry (LC-ESI-MS/MS) with a hybrid triple quadrupole-ion trap QTrap 5500 mass spectrometer (AB Sciex, Germany) as described without knowledge of clinical data or treatment groups. […] The internal standard method was used for quantification with Analyst Software V1.5 (Applied Biosystems, Germany). […]

serum LPAs [9] = test: Serum LPA concentrations (LC-MS/MS) in medication subgroups of MS patients; type: in vivo, human; conditions: MS patients on prophylactic treatment vs no medication, beta interferon or other drugs
Description: Human samples and data were available from an observational cross-sectional investigation of 102 multiple sclerosis patients (31 men, 71 women, demographic data Table 1) consecutively recruited from outpatients and inpatients of the Department of Neurology of the Goethe University Hospital Frankfurt, Germany. Data and blood collection was part of the local bio-banking project (Neurological Department of the Goethe University, Frankfurt), adhered to the Declaration of Helsinki and was approved by the Ethics Committees of the Medical Faculty of the Goethe University. Cerebrospinal fluid samples were available from a previous study including 20 MS patients and 10 control patients with other non-inflammatory neurologic diseases. For long-term time course analyses additional 15 patients were recruited and observed up to 3.5 years. […]
as §3

autotaxin [10] = target: T4, autotaxin; test: Autotaxin lyso-PLD activity ex vivo in primary splenocytes (C17-LPC to C17:0-LPA conversion); type: cell-based; conditions: splenocytes from treated EAE mice
Description: The spleens were removed and collected in a sterile wire mesh with 40 μm pore size over a Petri dish half filled with RPMI 1640 media and were gently pressed through the mesh using a 5 ml syringe plunger. The mesh was rinsed over the Petri dish with additional media to remove remaining cells. Disaggregated cells were transferred to a 15 ml Falcon tube and centrifuged at 2,000 rpm for 5 min and washed 2x in RPMI. The cell pellet was resuspended in RPMI, treated with erythrocyte lysis buffer for 10 min at room temperature, followed by centrifugation and resuspension in full medium (RPMI 1640 + 10% FBS + 1% Pen/Strep). Cells were plated in 6-well plates at 3x10^6/2 ml per well. Growth was stimulated with concanavalin A at 1 μg/ml. Cells were kept in an incubator at 37 °C, 95% humidity and 5% CO2 atmosphere and assays were performed after 2d in culture.
The lyso-PLD activity of ATX was measured in primary splenocytes of naïve and EAE mice. Cells were incubated for 2 h in 1.1 ml serum free RPMI 1640 medium and then stimulated for another 2 h with PMA 50 ng/ml and ionomycin 500 ng/ml in serum free medium before the autotaxin substrate, C17-LPC was added (100 μM in 1 μl in DMSO). […] C17-LPC is converted into the unnatural C17:0-LPA, which was analysed in supernatants and crude cell extracts by LC-MS/MS as described above. […]

T1 sequence (Q9HBW0 whole entry): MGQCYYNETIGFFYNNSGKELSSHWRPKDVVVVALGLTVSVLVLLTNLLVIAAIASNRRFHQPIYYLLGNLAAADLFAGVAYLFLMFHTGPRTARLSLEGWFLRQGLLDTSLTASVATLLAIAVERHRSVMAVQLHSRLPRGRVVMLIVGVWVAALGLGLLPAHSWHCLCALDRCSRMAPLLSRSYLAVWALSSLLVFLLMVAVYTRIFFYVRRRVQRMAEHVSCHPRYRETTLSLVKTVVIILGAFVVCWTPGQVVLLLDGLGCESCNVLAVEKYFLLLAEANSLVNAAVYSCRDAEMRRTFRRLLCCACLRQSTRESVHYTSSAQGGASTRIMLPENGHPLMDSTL
T3 sequence (Q92633 whole entry): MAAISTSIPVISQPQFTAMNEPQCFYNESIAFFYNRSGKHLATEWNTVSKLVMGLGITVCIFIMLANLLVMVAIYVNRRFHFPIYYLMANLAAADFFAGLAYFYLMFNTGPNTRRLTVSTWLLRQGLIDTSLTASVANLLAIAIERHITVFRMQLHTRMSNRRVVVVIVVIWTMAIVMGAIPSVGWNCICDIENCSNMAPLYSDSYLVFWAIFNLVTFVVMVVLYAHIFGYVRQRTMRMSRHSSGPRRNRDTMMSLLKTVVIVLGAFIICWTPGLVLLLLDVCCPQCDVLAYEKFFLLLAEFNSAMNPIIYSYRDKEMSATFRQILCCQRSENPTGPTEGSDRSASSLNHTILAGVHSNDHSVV
T2 sequence (Q9HBW0 whole entry): as the sequence (Q9HBW0 whole entry) above

## O=C(O)c1ccccc1SCCCN1C(=O)c2cccc3cccc(c23)C1=O [GRI 977143]
LPAR2 [1]; LPAR2 agonist, COS-1 cells
  EC50: ~1000 nM
RR-EAE SJL/J mice; 100 μg/mouse/d p.o. starting 3 d after immunization up to 35 d, vs vehicle
  clinical EAE scores: significantly lower clinical EAE scores
RR-EAE SJL/J mice; 100 μg/mouse/d p.o. starting 3 d after immunization, vs vehicle
  body weight: therapeutic efficacy was also evident
RR-EAE SJL/J mice; 100 μg/mouse/d p.o., 36 days after immunization, vs vehicle
  infiltration of the white matter of the lumbar spinal cord with myeloid cells (CD11b positive particles): much reduced; also recorded: significantly reduced
[2]; calculated from i.p. data
  AUC: 4260 ng·h/mL
  CL: 23.5 mL/h
  Vd: 27.3 mL
[2]; plasma, after i.p. administration, SJL/J mice
  Tmax: 10 min
LPAR1, 2, 3 or 4 [3]
  LPAR2 specificity: confirmed the LPAR2 specificity
LPAR2 [4]
  EC50: 1000 to 3000 nM

## CCCCCCCC/C=C\CCCCCCCC(=O)OC[C@@H](O)COP(=O)(O)O [LPA18:1, 1-oleoyl-LPA]
LPAR1
  Emax: highest Emax values
LPAR2 [1]; compared with other LPAs
  Emax: highest Emax values
LPAR1, 2, 3 or 4 [5]; mock-Gα15 transduced cells as control
  specificity (response of mock transduced cells): most specific

## O=C(CCN1CCN(C(=O)OCc2cc(Cl)cc(Cl)c2)CC1)c1ccc2[nH]c(=O)oc2c1 [PF8380]
Autotaxin [6]
  LPA plasma concentration: mainly reduced unsaturated LPAs

## CCCCCCCCc1ccc(CCC(N)(CO)CO)cc1 [fingolimod]
Autotaxin [7]
  autotaxin inhibition: slow acting autotaxin inhibitor
RR-EAE SJL/J mice; fingolimod 0.5 mg/kg/day in drinking water from 3 d after immunization
  clinical EAE scores: only minor effects
Serum LPAs [8]
  LPA serum concentration: additional LPA lowering effect
Serum LPAs [9]
  LPA concentrations in serum: significantly lower

## CCCCCCCCCCCCCCCCOC[C@@H](O)COP(=O)(O)O [hexadecyl-LPA]
LPAR1, 2, 3 or 4 [5]
  LPAR activation (agonist activity): no effects

## CCCCCCCCCCCCCCCCCCOC[C@@H](O)COP(=O)(O)O [octadecyl-LPA]
LPAR1, 2, 3 or 4 [5]
  LPAR activation (agonist activity): no effects

## natalizumab: alpha-4 integrin (VLA4) targeting monoclonal antibody
Autotaxin [10]
  maximum stimulation effect of PMA/Ionomycin on ATX activity: significantly reduced
RR-EAE SJL/J mice; 3 i.p. injections at d11 (200 μg), d14, d19 (150 μg)
  clinical EAE scores: reduced the clinical scores
Serum LPAs [8]
  LPA serum concentration: significantly lower LPA levels
Serum LPAs [9]
  LPA concentrations in serum: significantly lower
